In US20050049299A1, “Selective inhibitors of stat-3 activation and uses thereof” (priority 2003, published 2005):
“Also recorded” adds a separate entry of the source.

System: STAT3 phosphorylation
Assay: Constitutive STAT3 phosphorylation in MDA 1986LN cells (Western blot)
Assay type: cell-based, human
Protocol: TU167, MDA 1986LN, TU 686, MDA 686LN and JMAR cells (2×10^6 cells) were lysed and whole cell extracts (30 μg) were resolved on 7.5% SDS-PAGE, electrotransferred to a nitrocellulose membrane and probed for phosphorylated-STAT3 (p-STAT3) and total STAT3 proteins. […] MDA 1986LN cells (2×10^6 cells) were treated with curcumin (50 μM) for indicated durations or with indicated concentrations of curcumin for 1 h and levels of p-STAT3 (upper panels) and STAT3 (lower panels) were examined in whole cell extracts by Western blotting.
MDA 1986LN cells (2×10^6 cells) were treated with curcumin (50 μM) for the indicated durations (upper panels) or treated for 1 h and washed twice with PBS to remove curcumin before re-suspending in fresh medium. Cells were removed at indicated times and lysed to prepare the whole cell extract (lower panels). The whole cell extracts (30 μg) were resolved on 7.5% SDS-PAGE, electrotransferred to a nitrocellulose membrane, probed for the p-STAT3 (upper panels) and striped and reprobed for STAT3 (lower panels).
MDA 1986LN cells (2×10^6 cells) were treated with indicated concentrations of AG490 for 8 h and whole extracts prepared. These whole-cell extracts (30 μg) were resolved on 7.5% SDS-PAGE, electrotransferred to a nitrocellulose membrane, probed for p-STAT3 (upper panel), striped and reprobed for STAT3 (middle panel) and β-actin (lower panel). […] The cells were treated with AG490 (100 μM) for the indicated durations and whole cell extracts prepared and analyzed as mentioned earlier. FIG. 15C compares the effect of curcumin and AG490 on proliferation of MDA 1986LN cells by MTT assay.
Since STAT3 was constitutively phosphorylated in MDA 1986LN cells, the ability of curcumin to inhibit the constitutive STAT3 phosphorylation was examined. MDA 1986LN cells were treated either with curcumin (50 μM) for different durations or with different concentrations of curcumin for 1 h and the p-STAT3 levels and STAT3 levels were determined. Curcumin inhibited the constitutively active STAT3 in a time-(FIG. 11B) and a dose-(FIG. 11C) manner. This curcumin-induced inhibition could be observed as early as 30 min and with a concentration as low as 25 μM.
MDA 1986LN cells were treated with curcumin for indicated times or for 1 h and the cells were washed twice with PBS to remove curcumin. The cells were then cultured in media for various durations and the levels of phosphorylated STAT3 were determined. […] However, the STAT3 levels were unaffected by curcumin treatment.
The concentration and the exposure time for AG490 to inhibit STAT3 phosphorylation in MDA 1986LN cells were determined. These cells were incubated with either different concentrations of AG490 or with 100 μM of AG490 for different durations and the levels of p-STAT3 and STAT3 were assessed.

COc1cc(/C=C/C(=O)CC(=O)/C=C/c2ccc(O)c(OC)c2)ccc1O [curcumin, diferuloylmethane]
reversibility of inhibition of STAT3 phosphorylation (50 μM 1 h then washed): removal of curcumin resulted in gradual increase in phosphorylated STAT3 | earliest time at which inhibition of constitutive STAT3 phosphorylation could be observed (50 μM curcumin): 30 min | lowest concentration at which inhibition of constitutive STAT3 phosphorylation could be observed (1 h): 25 µM | inhibition of constitutive STAT3 phosphorylation (curcumin 50 μM, 1 h): inhibited the STAT3 phosphorylation completely; also recorded: completely inhibit | overall expression / levels of STAT3 protein (curcumin treatment): did not alter the overall expression of STAT3 protein; also recorded: unaffected
